Measured values reported in US9241998B2 (Board of Regents, The University of Texas System, priority 2007, dated 2016).
Peptide text beside a SMILES is read from it. * marks the point of attachment. Cbz = O=C(OCc1ccccc1)*; CH2F = FC*

How the values were obtained:
RSV infected PC-3 cells = experiment: RSV induced apoptosis (TUNEL) with caspase inhibitors or neutralizing antibodies; type: cell-based, human; conditions: for decline in RSV induced apoptosis (TUNEL): PC-3 cells, 36 h post-infection, 15 μM optimal for caspase-3, -9, -8 inhibitors
Procedure: PC-3 cells were pre-treated with control inhibitor (Z-FA-FMK) or caspase-3 (Z-DQMD-FMK), -8 (Z-IETD-FMK), -9 (Z-LEHD-FMK), -3/7 (Z-DEVD-FMK) (Calbiochem) and -12 (Z-ATAD-FMK) (MBL) inhibitors for 1 h at 37° C. Caspase-3, -8, -9 and -3/7 inhibitors at 15 μM-60 μM were used, while the caspase-12 inhibitor was used at 50 μM-100 μM. […] The cells were then washed and the infection was continued for an additional 36 h in the presence of inhibitors, following which apoptosis analysis was performed by TUNEL assay. […] In some experiments, infection was performed in the presence of both neutralizing antibody and caspase-3 or -8 inhibitors. At 36 h post-infection, cells were assayed for apoptosis. PC-3 and RWPE cells were pre-treated with either SN50 peptide (30 μM) or control SN50M (50 μM) peptide (Calbiochem) for 2 h, followed by virus infection (in the presence of peptides) for 0 h-36 h, after which cells were analyzed for apoptosis.

PC-3 cells = experiment: Western blot of apoptosis proteins in RSV infected cells; type: cell-based, human
Procedure: Bcl-2, Bcl-xL, Bad, Bax antibodies were obtained from Cell Signaling, while caspase-3, PARP and GFP antibodies were from Santa Cruz. Heat shock protein-70 (Hsp70) (Santa Cruz) antibody was used as a loading control. Nuclear extracts prepared from infected cells were incubated with a ^32P-labeled NF-κB oligonucleotide probe and analyzed for EMSA as described previously.

[1] = test system: human lung epithelial A549 cells; experiment: RSV mediated apoptosis in A549 cells with caspase inhibitor; type: cell-based
Excerpt: (§1) The extrinsic pathway to apoptosis is induced following engagement of death receptors (e.g., TNF-receptor and Fas) with cognate ligands (TNF and FasL), leading to the activation of caspase-8. The ER-stress pathway (12) activation leads to activation of caspase-12. Activation of both caspase-8 and caspase-12 results in caspase-3 activation and apoptosis. […] Similarly, blocking caspase-9 activity also led to significant inhibition (by 75%) in apoptosis. […] It is important to note that the caspase-8 inhibitor is active, since it reduced interferon-γ+Fas antibody mediated apoptosis (14) in A549 cells by 60%.

A549 cells = experiment: Interferon-γ+Fas antibody mediated apoptosis in A549 cells; type: cell-based, human
Excerpt: as §1

Compound	decline in RSV induced apoptosis (TUNEL) (RSV infected PC-3 cells)	PARP cleavage in RSV infected cells treated with inhibitor (PC-3 cells)	inhibition of RSV mediated apoptosis [1] [%]	inhibition of apoptosis in infected PC-3 cells at high concentration (RSV infected PC-3 cells; up to 100 μM)	reduction of interferon-γ+Fas antibody mediated apoptosis (A549 cells) [%]
COC(=O)CC[C@H](NC(=O)[C@H](CC(C)C)NC(=O)OCc1ccccc1)C(=O)N[C@@H](Cc1cnc[nH]1)C(=O)N[C@@H](CC(=O)OC)C(=O)CF [caspase-9 inhibitor, Z-LEHD-FMK] (Cbz-LE(OMe)HD(OMe)-CH2F)	75%				
COC(=O)C[C@H](NC(=O)[C@H](CCSC)NC(=O)[C@H](CCC(N)=O)NC(=O)[C@H](CC(=O)OC)NC(=O)OCc1ccccc1)C(=O)CF [caspase-3 inhibitor, Z-DQMD-FMK] (Cbz-D(OMe)QMD(OMe)-CH2F)	85%	prevented PARP cleavage			
COC(=O)CC[C@H](NC(=O)[C@H](CC(=O)OC)NC(=O)OCc1ccccc1)C(=O)N[C@H](C(=O)N[C@@H](CC(=O)OC)C(=O)CF)C(C)C [Z-DEVD-FMK]		prevented PARP cleavage			
C[C@H](NC(=O)OCc1ccccc1)C(=O)N[C@H](C(=O)N[C@@H](C)C(=O)N[C@@H](CC(=O)O)C(=O)CF)[C@@H](C)O [caspase-12 inhibitor, Z-ATAD-FMK] (Cbz-ATAD-CH2F)	did not alter apoptosis		40	failed to inhibit apoptosis	
CC[C@H](C)[C@H](NC(=O)OCc1ccccc1)C(=O)N[C@@H](CCC(=O)OC)C(=O)N[C@H](C(=O)N[C@@H](CC(=O)OC)C(=O)CF)[C@@H](C)O [caspase-8 inhibitor, Z-IETD-FMK] (Cbz-IE(OMe)TD(OMe)-CH2F)	15%				60
